According to ChEMBL document CHEMBL1201862, “PubChem BioAssay data set” (2004):
Active and inactive are the calls of the source.

Key:
[1] = biological target: T1, Calpain-2 catalytic subunit (Sus scrofa, UniProt P43367); assay: m-calpain protease blockers, concentration series – biochemical, fluorogenic peptide substrate, dose response (AID 1420); type: functional
T1 sequence (P43367 whole entry): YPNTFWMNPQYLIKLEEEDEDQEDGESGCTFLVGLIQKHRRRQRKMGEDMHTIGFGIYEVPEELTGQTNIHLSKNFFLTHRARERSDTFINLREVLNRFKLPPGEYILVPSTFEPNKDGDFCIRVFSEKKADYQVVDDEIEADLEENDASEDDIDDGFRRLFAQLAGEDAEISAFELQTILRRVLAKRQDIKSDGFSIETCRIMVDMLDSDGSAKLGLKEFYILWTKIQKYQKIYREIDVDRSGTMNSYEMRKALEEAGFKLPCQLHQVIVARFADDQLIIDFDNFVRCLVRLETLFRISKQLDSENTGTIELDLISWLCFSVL

[2] = biological target: T2, Carboxy-terminal domain RNA polymerase II polypeptide A small phosphatase 1 (Homo sapiens, UniProt Q9GZU7); assay: CTDSP1 inhibitors, concentration-response, biochemical, absorbance readout, ultra-high-throughput screen actives (AID 540297); type: functional
T2 sequence (Q9GZU7 whole entry): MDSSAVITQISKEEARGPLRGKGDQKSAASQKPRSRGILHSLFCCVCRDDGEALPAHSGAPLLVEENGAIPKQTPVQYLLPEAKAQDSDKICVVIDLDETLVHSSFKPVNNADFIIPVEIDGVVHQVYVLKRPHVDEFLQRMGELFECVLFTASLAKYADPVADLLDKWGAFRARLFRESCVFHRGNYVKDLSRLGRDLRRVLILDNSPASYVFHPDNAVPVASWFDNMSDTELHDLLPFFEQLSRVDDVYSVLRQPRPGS

[3] = biological target: Voltage-dependent T-type calcium channel subunit alpha-1H (Homo sapiens, UniProt O95180); type: functional;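 note: channel activity triggered by adding a high calcium stimulation buffer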
Voltage-dependent T-type calcium channel subunit alpha-1H, sequence (O95180 whole entry): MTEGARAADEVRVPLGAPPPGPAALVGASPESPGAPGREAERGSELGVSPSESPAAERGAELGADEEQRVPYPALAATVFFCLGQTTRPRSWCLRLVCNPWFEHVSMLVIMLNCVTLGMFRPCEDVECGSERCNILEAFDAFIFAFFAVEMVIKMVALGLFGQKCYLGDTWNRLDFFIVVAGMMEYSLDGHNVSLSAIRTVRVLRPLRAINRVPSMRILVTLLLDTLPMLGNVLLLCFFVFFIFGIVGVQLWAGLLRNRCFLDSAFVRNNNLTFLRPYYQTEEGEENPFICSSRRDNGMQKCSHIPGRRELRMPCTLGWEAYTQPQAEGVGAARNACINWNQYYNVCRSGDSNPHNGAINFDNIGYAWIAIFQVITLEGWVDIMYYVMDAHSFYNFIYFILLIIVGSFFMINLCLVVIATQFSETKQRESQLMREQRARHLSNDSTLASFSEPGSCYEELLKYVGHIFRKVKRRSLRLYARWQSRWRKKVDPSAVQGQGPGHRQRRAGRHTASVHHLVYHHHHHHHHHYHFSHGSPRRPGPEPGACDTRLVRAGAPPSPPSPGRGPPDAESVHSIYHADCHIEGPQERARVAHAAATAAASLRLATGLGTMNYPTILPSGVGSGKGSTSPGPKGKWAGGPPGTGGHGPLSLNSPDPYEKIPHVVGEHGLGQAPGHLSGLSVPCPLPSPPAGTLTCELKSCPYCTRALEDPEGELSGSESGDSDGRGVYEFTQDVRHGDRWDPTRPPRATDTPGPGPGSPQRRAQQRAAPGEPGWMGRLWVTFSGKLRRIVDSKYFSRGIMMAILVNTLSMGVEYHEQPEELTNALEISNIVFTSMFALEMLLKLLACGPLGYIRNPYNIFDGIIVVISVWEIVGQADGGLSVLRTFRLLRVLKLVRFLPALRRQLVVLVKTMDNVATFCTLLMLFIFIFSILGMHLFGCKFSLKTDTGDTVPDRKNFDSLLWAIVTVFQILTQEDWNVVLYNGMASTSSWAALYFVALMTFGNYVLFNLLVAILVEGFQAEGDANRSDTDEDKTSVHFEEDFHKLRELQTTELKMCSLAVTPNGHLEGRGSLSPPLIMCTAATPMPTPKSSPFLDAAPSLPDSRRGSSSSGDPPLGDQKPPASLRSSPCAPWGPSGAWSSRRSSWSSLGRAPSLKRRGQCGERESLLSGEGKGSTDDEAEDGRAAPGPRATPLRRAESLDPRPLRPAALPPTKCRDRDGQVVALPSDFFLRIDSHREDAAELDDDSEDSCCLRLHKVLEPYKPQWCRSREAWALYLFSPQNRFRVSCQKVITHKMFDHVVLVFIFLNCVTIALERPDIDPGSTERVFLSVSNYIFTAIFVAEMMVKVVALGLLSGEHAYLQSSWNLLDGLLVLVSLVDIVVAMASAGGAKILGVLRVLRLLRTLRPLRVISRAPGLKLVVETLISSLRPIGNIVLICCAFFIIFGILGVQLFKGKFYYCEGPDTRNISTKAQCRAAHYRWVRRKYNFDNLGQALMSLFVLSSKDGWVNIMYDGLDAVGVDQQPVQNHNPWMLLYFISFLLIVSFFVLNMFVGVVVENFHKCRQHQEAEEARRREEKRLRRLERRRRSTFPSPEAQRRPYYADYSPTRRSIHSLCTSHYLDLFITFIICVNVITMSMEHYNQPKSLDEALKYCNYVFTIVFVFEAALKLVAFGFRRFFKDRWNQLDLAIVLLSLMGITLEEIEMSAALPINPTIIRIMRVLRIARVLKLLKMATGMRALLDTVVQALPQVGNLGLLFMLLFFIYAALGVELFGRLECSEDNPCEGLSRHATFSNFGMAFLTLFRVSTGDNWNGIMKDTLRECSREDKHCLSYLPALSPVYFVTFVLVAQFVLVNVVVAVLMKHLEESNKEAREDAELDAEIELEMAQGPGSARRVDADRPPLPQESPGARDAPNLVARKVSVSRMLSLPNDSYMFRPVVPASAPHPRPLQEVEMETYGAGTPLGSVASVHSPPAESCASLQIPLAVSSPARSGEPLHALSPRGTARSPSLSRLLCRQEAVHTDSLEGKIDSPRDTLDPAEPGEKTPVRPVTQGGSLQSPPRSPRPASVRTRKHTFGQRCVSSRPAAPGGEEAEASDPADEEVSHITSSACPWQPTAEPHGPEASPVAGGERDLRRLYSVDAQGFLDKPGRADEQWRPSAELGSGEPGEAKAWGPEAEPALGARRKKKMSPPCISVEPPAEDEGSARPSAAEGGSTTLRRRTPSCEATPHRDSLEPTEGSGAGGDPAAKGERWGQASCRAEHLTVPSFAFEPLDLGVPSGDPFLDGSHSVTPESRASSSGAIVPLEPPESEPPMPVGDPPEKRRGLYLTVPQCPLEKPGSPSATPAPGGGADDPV

[4] = biological target: T3, Ubiquitin-conjugating enzyme E2 N (Homo sapiens, UniProt P61088); type: functional;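 note: Dose-response confirmation in a TR-FRET assay detecting UBC13-driven polyubiquitin chain formation, inhibition measured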
T3 sequence (P61088 whole entry): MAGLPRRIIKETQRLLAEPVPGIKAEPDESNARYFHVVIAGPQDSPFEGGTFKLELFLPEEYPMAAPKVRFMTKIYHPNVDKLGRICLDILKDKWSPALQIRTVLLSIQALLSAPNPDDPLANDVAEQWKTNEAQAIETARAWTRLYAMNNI

[5] = microbe, parasite or virus in culture; type: functional; details: Mycobacterium tuberculosis
[6] = viability of PTEN-deleted HCT116 cells – cell-based, HCT116 PTEN knockout, dose response (AID 1047); type: functional;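 note: HCT116 colon tumor cells with PTEN knocked out; cells exposed to compound for 60 hours before readout; potency for loss of cell viability measured by luminescence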
[7] = viability of HCT116 lacking mutant beta-catenin – cell-based, human colon tumor, dose response (AID 1045); type: functional;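 note: HCT116 colon tumor cells with beta catenin knocked out; cells exposed to compound for 60 hours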
[8] = Luminescence Cell-Based Dose Retest to Confirm Inhibitors of Cancer Stem Cells. [Related pubchem assays (depositor defined):AID2717, AID2721]; type: functional; details: Homo sapiens
Cytochrome P450 1A2 = biological target: T4, Cytochrome P450 1A2 (Homo sapiens, UniProt P05177);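 note: PubChem cytochrome P450 panel assay, CYP1A2 panel member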
T4 sequence (P05177 whole entry): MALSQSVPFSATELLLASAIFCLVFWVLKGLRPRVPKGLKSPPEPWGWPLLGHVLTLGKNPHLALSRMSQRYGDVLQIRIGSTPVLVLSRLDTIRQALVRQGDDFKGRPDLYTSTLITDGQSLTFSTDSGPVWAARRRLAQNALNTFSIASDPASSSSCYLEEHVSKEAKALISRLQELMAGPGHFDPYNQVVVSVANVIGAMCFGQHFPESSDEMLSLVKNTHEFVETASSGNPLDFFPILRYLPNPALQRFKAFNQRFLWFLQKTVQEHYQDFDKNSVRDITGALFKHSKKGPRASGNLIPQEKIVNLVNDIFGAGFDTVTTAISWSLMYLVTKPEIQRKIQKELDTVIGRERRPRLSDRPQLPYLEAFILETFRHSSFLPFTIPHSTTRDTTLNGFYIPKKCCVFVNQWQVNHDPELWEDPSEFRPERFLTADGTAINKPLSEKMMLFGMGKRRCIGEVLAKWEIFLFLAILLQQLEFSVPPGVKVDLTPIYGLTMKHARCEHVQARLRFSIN

[9] = biological target: T5, Endoribonuclease toxin MazF (Escherichia coli K-12, UniProt P0AE70); assay: activation of MazEF endoribonuclease cleavage – biochemical, fluorescence, single-stranded RNA substrate, uHTS hits, dose response (AID 588481); type: functional
T5 sequence (P0AE70 whole entry): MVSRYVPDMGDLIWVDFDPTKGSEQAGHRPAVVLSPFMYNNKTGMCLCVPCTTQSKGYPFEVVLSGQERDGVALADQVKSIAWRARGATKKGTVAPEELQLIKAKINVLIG

[10] = biological target: T5, Endoribonuclease toxin MazF; assay: substrate-only fluorescence increase artefacts – biochemical, single-stranded RNase substrate, counter-screen for MazEF activator project, dose response (AID 588502); type: functional
[11] = Trypanosoma cruzi growth suppression in host cells – NIH3T3 host cells, beta-gal luminescence, confirmation (AID 2044); type: functional, cell-based;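 note: intracellular parasites grown in NIH/3T3 mouse fibroblasts as host cells; luminescent beta-galactosidase reporter signal from transgenic T. cruzi replicating inside host cells; inhibitors lower the luminescence signal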
[12] = NIH3T3 cell viability loss – ATP luminescence, mouse fibroblasts, counter-screen, dose response (AID 2010); type: functional, cell-based;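 note: cells exposed to compound for about 90 hours before reading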
H9c2 = assay: cells; type: functional, cell-based; details: Rattus norvegicus, H9c2, Myocardium

## O=C(CCC(=O)N1CCN(S(=O)(=O)c2ccc(Cl)cc2)CC1)Nc1cccc(Br)c1
[1]
  IC50: 24.9 µM (not active)

## Cn1c(N)c(C(=O)COC(=O)CCCc2nc3ccccc3s2)c(=O)n(C)c1=O
[1]
  IC50: > 50 µM (not active)

## O=C(NCc1ccco1)c1ccc2c(=O)n(Cc3ccco3)c(SCC(=O)N3CCCC3)nc2c1
[2]
  IC50: 6.12 µM (active)

## O=C(CSc1nc(N2CCCCC2)nc(N2CCCCC2)n1)N1CCN(c2ccccc2)CC1
[3]
  EC50: 5.36 µM (active)

## COc1ccc(-c2nnc(SCC(=O)Nc3cc(F)ccc3C)o2)cc1
[4]
  IC50: > 20 µM (inactive)

## Cc1cc(NS(=O)(=O)c2ccc(NC(=S)NC(=O)c3ccc(C(C)(C)C)cc3)cc2)no1
[1]
  IC50: 26.1 µM (not active)

## CN1CCN(Cc2nc3ccccc3c(=O)n2Cc2nc(-c3ccc4ccccc4c3)cs2)CC1
[5]
  CC50: 6.44 µM (active)
[6]
  EC50: 4.11 µM (active)
[7]
  EC50: 4.02 µM (active)
[8]
  AC50: 4.28 µM (active)

## O=C(N/N=C/c1cccc(OC2CSC2)c1)c1ccccc1O
[2]
  IC50: 6.78 µM (active)
Cytochrome P450 1A2
  AC50: 3.16 µM (inconclusive)

## Nc1c(C(=O)C2CC2)sc2nc(-c3ccccc3)cc(C(F)(F)F)c12
[3]
  EC50: 2.51 µM (active)

## CC(=O)C(C[N+]1(C)CCCCC1)=NO
[2]
  IC50: 3.4 µM (active)

## CCC(=O)N1c2ccc(C)cc2C2=NN=C(S)NC21O (stereo not drawn)
[4]
  IC50: > 20 µM (inactive)

## Cc1ccc(-n2nnnc2SCc2nc3sc(C)c(C)c3c(=O)[nH]2)cc1
[9]
  EC50: > 99 µM (inactive)
[10]
  EC50: > 99 µM (inactive)

## COC(=O)c1[nH]c2cc(OC)ccc2c1NC(=O)CN1CCN(c2cccc(C)c2)C(C)C1 (stereo not drawn)
[5]
  CC50: 30.6 µM (active)

## COc1ccccc1N1CCN(C(=O)C(Sc2ccccc2)c2ccccc2)CC1 (stereo not drawn)
[3]
  EC50: 4.93 µM (active)

## Cc1ccc(-c2csc(NC(=O)c3cccc(N4C(=O)CCC4=O)c3)n2)o1
[3]
  EC50: 3.78 µM (active)

## CCOc1ccc(-c2n[nH]cc2Oc2cccc(OC)c2)c(O)c1
[4]
  IC50: > 20 µM (inactive)

## Cc1ccc(CCNC(=O)c2ccc3nc4ccccc4c(=O)n3c2)cc1
[2]
  IC50: 14.2 µM (active)

## COc1ccc(N2CCN(Cc3cc4c(cc3O)CCC4)CC2)cc1
[5]
  CC50: > 40 µM (active)

## O=[N+]([O-])c1ccc(/C=C/c2ccc3cccc(O)c3n2)cc1
[9]
  EC50: > 99 µM (inactive)
[10]
  EC50: > 99 µM (inactive)

## O=c1c2cc(NC(=S)NCCCN3CCC(Cc4ccccc4)CC3)ccc2nc2n1CCCCC2
[11]
  EC50: 2.09 µM (active)
[12]
  EC50: > 60 µM (not active)
[8]
  AC50: 9.58 µM (active)
[4]
  IC50: > 20 µM (inactive)

## Cc1cc(C)c(C#N)c(SCC(=O)c2cccs2)n1
[9]
  EC50: 18 µM (active)
[10]
  EC50: > 99 µM (inactive)

## CCN(CC)S(=O)(=O)c1ccc(Nc2nc3ccccc3n3nnnc23)cc1
[6]
  EC50: 22.1 µM (active)
[7]
  EC50: 35.3 µM (active)
H9c2
  IC50: > 79 µM (inactive)

## CCOc1ccc(C2CC(c3cccc(OC)c3OC)n3nnnc3N2)cc1Cl (stereo not drawn)
[3]
  EC50: 2.66 µM (active)

## COc1ccc(Br)cc1/C=C(\C(=O)O)c1ccc(S(=O)(=O)N2CCCC2)s1
[2]
  IC50: 8.63 µM (active)

## CCn1c(/C=C/c2c(C)n(CC)c3ccccc23)nc2ccccc2c1=O
[9]
  EC50: > 99 µM (inactive)
[10]
  EC50: > 99 µM (inactive)

## Cc1ccc(-c2cc(C(F)F)n3ncc(C(=O)Nc4c(C)nn(Cc5ccccc5Cl)c4C)c3n2)cc1
[6]
  EC50: 8.84 µM (active)
[7]
  EC50: 8.23 µM (active)

## C/C(=N\NC(=O)CC(C)C)c1c(C(F)(F)F)nn(-c2nc3ccccc3s2)c1O
[5]
  CC50: 37.4 µM (active)

## CC(C)COP(=O)(OCC(C)C)C(Nc1ccccc1)c1ccc2c(c1)OCO2 (stereo not drawn)
[1]
  IC50: 11.4 µM (not active)
H9c2
  IC50: > 79 µM (inactive)
